Results taken from article PMC10959927, “Platinum iodido drugs show potential anti-tumor activity, affecting cancer cell metabolism and inducing ROS and senescence in gastrointestinal cancer cells” (Communications Biology, 2024).
Several values for one entry are separate records, joined by “and”; a condition that tells them apart may be missing. Identical values can stand only once.

Experiments:
[1] = tested on: PANC1 xenografted tumors in NU-Foxn1nu nude mice; experiment: PANC1 xenograft in vivo treatment; set-up: species or system mouse; conditions: for Fold-change in tumor volume vs d0: individual tumors
Protocol: (§1) PANC1 cells were then trypsinized and resuspended in RPMI culture medium with 40% Matrigel (no. 45354234, Corning® Matrigel® Basement Membrane Matrix, LDEV-free, Cultek, Spain) at a concentration of 1 × 10^5 cells per 50 μL, and then 50 μL of the resuspended cells were subcutaneously injected into the right and left flanks of female 8 week-old NU-Foxn1nu nude mice (Janvier Labs, France). Tumor growth and volumes were monitored every 2–3 days for up to 4 weeks with a caliper, and tumor volumes (mm^3) were computed using the formula: 0.5 × D12 × D2, where D1 and D2 are the width or the […] diameter and the length or the smallest diameter of a given tumor, respectively. At the end of the experiment, mice were sacrificed, and tumors extracted, photographed, and weighed. (ii) For xenograft in vivo treatment experiments, 1 × 10^6 PANC1 cells resuspended in RPMI culture medium supplemented with 40% Matrigel (Corning®) were orthotopically injected in the pancreas of female NU-Foxn1nu nude mice (Janvier Labs, France). Approximately 2 months post injection, tumors were excised, cut into identical pieces of ~50 mm^3 and implanted (with RPMI culture medium supplemented with 40% Matrigel® Corning®) subcutaneously into the left and right flanks of 15 8 week-old NU-Foxn1nu nude mice (Janvier, France). […] Control mice were treated with 100 µl of physiological saline (0.9% NaCl). Tumor volumes were determined twice per week by caliper measurements throughout the course of the study as described above. At the indicated end point, mice were sacrificed, weighed, blood was collected in EDTA tubes (Aquisel, Cat no. 107545), urine was collected in 1.5 ml Eppendorf tubes, and tumors were excised, weighed, photographed, and fixed in 4% Paraformaldehyde (Alfa Aesar™).

[2] = tested on: NU-Foxn1nu nude mice; experiment: Urine analysis of treated xenograft mice; type: in vivo, mouse
Protocol: as §1
(§2) Whole blood was analyzed with an Element HT5, Veterinary Hematology Analyzer (Scil animal care company GmbH, Madrid, Spain) and plasma was analyzed at the Analytical Laboratory of the Hospital Fundación Jiménez Díaz. Plasma-EDTA samples were examined for markers of renal (urea, BUN, and creatinine) and liver [bilirubin and GGT (γ-Glutamyltransferase)] injury. Urine was analyzed for protein, creatinine and glucose. Urea, creatinine, and glucose were detected by enzymatic assays, total protein by turbidimetry, and bilirubin and GGT via a colorimetric assay in the Cobas® Roche 701 module (a fully automated, high throughput photometric analyzer for a large array of quantitative and qualitative in vitro tests), following the manufacturer’s instructions.

[3] = tested on: C57Bl6 mice; experiment: Indirect calorimetry analyses (PhenoMaster); type: in vivo, mouse
Protocol: Indirect calorimetry analyses were carried out using a 16-chamber TSE PhenoMaster monitoring system (TSE Systems GmbH, Bad Homburg, Germany). Full access to food and water was continuously available, and intake was monitored using built-in devices located within each cage. Calorimetry measurements were carried out during a period of 72 h, according to animal weight, to exclude changes in body weight that would contribute to differences in energy expenditure measurements. […] Mice were introduced into individual chambers and were on a 12 h light-dark cycle (lights on at 07:00am) during the course of the experiment, with a maintained room temperature of 22 ± 2°C. Oxygen consumption and CO2 release was measured. From these values, respiratory exchange ratio (RER) was determined as VCO2/VO2 and energy expenditure (EE) was calculated as = ([…] + 1.232 x RER) x VO2. Locomotor activity was reported as the average light beam breaks (XT + YT) per min. XT and YT (T = total) were calculated from the sum of the ambulatory and fine movements. Water and food consumption (DRINK and FOOD, respectively, Fig. S8) were also monitored and recorded.

[4] = tested on: NU-Foxn1nu nude mice; experiment: Plasma biochemistry (renal and liver injury markers) of treated xenograft mice; type: in vivo, mouse; conditions: for BUN / Urea: blood
Protocol: as §1, §2

[5] = tested on: NU-Foxn1nu nude mice; experiment: Whole blood hematology of treated xenograft mice; type: in vivo, mouse; conditions: for Basophils / Eosinophils / Haemoglobin / Hematocrit / Lymphocytes / MCH / MCHC / MCV / MPV / Monocytes / Neutrophils / RDW-CV: individual mice
Protocol: as §1, §2

[6] = tested on: PANC1 cells in NU-Foxn1nu nude mice; experiment: Xenograft of pre-treated PANC1 cells; type: in vivo, mouse; conditions: for Tumor Growth (mm3): ND: No Detected
Protocol: as §1

[7] = PANC1 xenograft, 1.4 mg/kg r.o.
[8] = 17 days of I5 treatment, 1.4 mg/kg r.o. or i.p.
[9] = Intra-Peritoneal group (I5 1.4 mg/kg), single mice
[10] = Intra-Peritoneal group (I5 1.4 mg/kg), single mice, 1.4 mg/kg
[11] = Retro-Orbital group (I5 1.4 mg/kg), single mice, 1.4 mg/kg
[12] = Intra-Peritoneal group (I5 1.4 mg/kg), d17, single mice, 1.4 mg/kg
[13] = Retro-Orbital group (I5 1.4 mg/kg), d17, single mice, 1.4 mg/kg

With CC(C)[NH][Pt@SP3]([I])([I])[NH]C(C)C [I5, trans-[PtI2(isopropylamine)2]] the “Fold-change in tumor volume vs d0” value ([1]; IP, 0 days post-treatment initiation) was 1, the “Fold-change in tumor volume vs d0” value ([1]; IP, 3 days post-treatment initiation) was 1.05 and 1.45 and 0.79 and 1.51 and 1.63 and 0.95 and 1.1 and the “Fold-change in tumor volume vs d0” value ([1]; IP, 7 days post-treatment initiation) was 1.29 and 1.56 and 0.79 and 1.32 and 1.71 and 0.86 and 1.49. The “Fold-change in tumor volume vs d0” value ([1]; IP, 10 days post-treatment initiation) was 1.75 and 2.48 and 0.96 and 2.5 and 2.73 and 1.37 and 2.28, the “Fold-change in tumor volume vs d0” value ([1]; IP, 14 days post-treatment initiation) was 2.21 and 4.16 and 0.85 and 2.92 and 3.98 and 1.35 and 3.75 and the “Fold-change in tumor volume vs d0” value ([1]; IP, 17 days post-treatment initiation) was 3.08 and 4.39 and 0.91 and 3.92 and 4.58 and 1.62 and 4.25. For the same compound, the tumor growth ([1]; PANC1 xenograft, 1.4 mg/kg i.p.) was “reduced tumor growth”, the tumor growth [1, 7] was “reduced tumor growth” and the “tumor volume at conclusion of the experiment” value [1, 7] was “statistically significant effect on tumor volume”. The “tumor weight at conclusion of the experiment” value [1, 7] was “marked reduction in tumor weight”, the “Fold-change in tumor volume vs d0” value ([1]; RO, 0 days post-treatment initiation) was 1 and the “Fold-change in tumor volume vs d0” value ([1]; RO, 3 days post-treatment initiation) was 0.66 and 0.95 and 1.12 and 1.34 and 1.68. The “Fold-change in tumor volume vs d0” value ([1]; RO, 7 days post-treatment initiation) was 0.81 and 1.29 and 1.57 and 1.05 and 1.08, the “Fold-change in tumor volume vs d0” value ([1]; RO, 10 days post-treatment initiation) was 0.74 and 2.21 and 2.36 and 1.14 and 1.44 and the “Fold-change in tumor volume vs d0” value ([1]; RO, 14 days post-treatment initiation) was 0.85 and 2.64 and 3.43 and 1.26 and 1.18. The “Fold-change in tumor volume vs d0” value ([1]; RO, 17 days post-treatment initiation) was 1.43 and 3.89 and 4.46 and 1.56 and 1.13, the “adverse effects on urine analyses” value [2, 8] was “no adverse effects” and the “Creatinine in Urine” value [2, 9] was 59 mg/dL. For the same compound, the “Protein/Creatinine in Urine” value [2, 9] was 8814, the “Glucose in Urine” value [2, 10] was 40 mg/dL and 20 mg/dL and the “Protein in Urine” value [2, 10] was 80 mg/dL and 52 mg/dL. The “Glucose in Urine” value ([2]; Retro-Orbital group (I5 1.4 mg/kg), single mice) was 30 mg/dL, the “Creatinine in Urine” value [2, 11] was 56 mg/dL and 57 mg/dL and 61 mg/dL and the “Protein/Creatinine in Urine” value [2, 11] was 10536 and 9221 and 16383. For the same compound, the “RER, EE, locomotor activity, food and water intake vs untreated” value ([3]; C57Bl6 mice, 1.4 mg/kg i.v.) was “no differences were observed”, the DRINK ([3]; Fig. S8B left graph, individual mice) was 4.49 mL and 10.13 mL and 7.81 mL and 7.64 mL and 8.16 mL and the “adverse effects on plasma blood analyses” value [4, 8] was “no adverse effects”. For the same compound, the GGT ([4]; Intra-Peritoneal group (I5 1.4 mg/kg), d17, single mice) was under 3 UI/L, the “Serum Creatinine” value [4, 12] was 0.2 mg/dL and 0.17 mg/dL and 0.22 mg/dL and the GGT ([4]; Retro-Orbital group (I5 1.4 mg/kg), d17, single mice) was under 3 UI/L. For the same compound, the “Serum Creatinine” value [4, 13] was 0.17 mg/dL and 0.2 mg/dL and 0.21 mg/dL, the “Total Bilirubin” value [4, 13] was < 0.15 mg/dL and < 0.21 mg/dL and the BUN [4, 12] was 19 mg/dL and 18 mg/dL and 16 mg/dL. The Urea [4, 12] was 40 mg/dL and 39 mg/dL and 38 mg/dL and 35 mg/dL, the BUN [4, 13] was 16 mg/dL and 19 mg/dL and the Urea [4, 13] was 40 mg/dL and 34 mg/dL and 35 mg/dL. The “adverse effects on hematocrit parameters” value [5, 8] was “no adverse effects”, the Basophils ([5]; Intra-peritoneal) was 0.41 109 cells/L and 0.45 109 cells/L and 0.47 109 cells/L and 0.86 109 cells/L and the Eosinophils ([5]; Intra-peritoneal) was 0.45 109 cells/L and 0.33 109 cells/L and 0.19 109 cells/L and 0.47 109 cells/L. The Haemoglobin ([5]; Intra-peritoneal) was 18.5 g/dL and 17.5 g/dL and 19.1 g/dL and 17.7 g/dL, the Hematocrit ([5]; Intra-peritoneal) was 43.4% and 39.8% and 44.6% and the Lymphocytes ([5]; Intra-peritoneal) was 4.49 109 cells/L and 2.36 109 cells/L and 3.04 109 cells/L and 4.43 109 cells/L. For the same compound, the MCH ([5]; Intra-peritoneal) was 19.3 pg and 19.1 pg and 19.2 pg and 19.7 pg, the MCHC ([5]; Intra-peritoneal) was 42.6 g/dL and 44 g/dL and 42.8 g/dL and 44.4 g/dL and the MCV ([5]; Intra-peritoneal) was 45.3 fL and 43.5 fL and 44.8 fL and 44.2 fL. For the same compound, the MPV ([5]; Intra-peritoneal) was 6.1 fL and 5.5 fL and 6 fL, the Monocytes ([5]; Intra-peritoneal) was 1.17 109 cells/L and 0.96 109 cells/L and 0.45 109 cells/L and 3.1 109 cells/L and the Neutrophils ([5]; Intra-peritoneal) was 4.24 109 cells/L and 2.95 109 cells/L and 1.59 109 cells/L and 5.08 109 cells/L. The RDW-CV ([5]; Intra-peritoneal) was 13.9% and 14.8% and 14.3%, the Basophils ([5]; Retro-orbital) was 0.43 109 cells/L and 0.62 109 cells/L and 0.64 109 cells/L and the Eosinophils ([5]; Retro-orbital) was 0.21 109 cells/L and 0.31 109 cells/L and 0.34 109 cells/L. For the same compound, the Haemoglobin ([5]; Retro-orbital) was 18.3 g/dL, the Hematocrit ([5]; Retro-orbital) was 42.9% and 41.4% and 42.8% and the Lymphocytes ([5]; Retro-orbital) was 2.46 109 cells/L and 3.66 109 cells/L and 5.37 109 cells/L. For the same compound, the MCH ([5]; Retro-orbital) was 19 pg and 20.5 pg and 19.2 pg, the MCHC ([5]; Retro-orbital) was 42.6 g/dL and 44.2 g/dL and 42.9 g/dL and the MCV ([5]; Retro-orbital) was 44.5 fL and 46.3 fL and 44.8 fL. The MPV ([5]; Retro-orbital) was 5.6 fL and 6.1 fL and 5.2 fL, the Monocytes ([5]; Retro-orbital) was 0.91 109 cells/L and 0.87 109 cells/L and 0.47 109 cells/L and the Neutrophils ([5]; Retro-orbital) was 3.45 109 cells/L and 3.24 109 cells/L and 2.71 109 cells/L. The RDW-CV ([5]; Retro-orbital) was 14.2% and 14.7% and 14.6%, the “Tumor Take (%)” value ([6]; Day 7) was 0% and the “Tumor Take (%)” value ([6]; Day 10) was 12.5%. For the same compound, the “Tumor Growth (mm3)” value ([6]; Day 10, individual tumors) was 10.7 mm3, the “Tumor Take (%)” value ([6]; Day 13) was 12.5% and the “Tumor Growth (mm3)” value ([6]; Day 13, individual tumors) was 7.7 mm3. The “Tumor Take (%)” value ([6]; Day 16) was 25%, the “Tumor Growth (mm3)” value ([6]; Day 16, individual tumors) was 9.4 mm3 and 8.5 mm3 and the “Tumor Take (%)” value ([6]; Day 20) was 25%. For the same compound, the “Tumor Growth (mm3)” value ([6]; Day 20, individual tumors) was 7.4 mm3 and 10.1 mm3, the “Tumor Take (%)” value ([6]; Day 23) was 37.5% and the “Tumor Growth (mm3)” value ([6]; Day 23, individual tumors) was 8 mm3 and 10.9 mm3 and 9.7 mm3. For the same compound, the “Tumor Take (%)” value ([6]; Day 28) was 62.5%, the “Tumor Growth (mm3)” value ([6]; Day 28, individual tumors) was 9.8 mm3 (2×) and 10.8 mm3 and 10.9 mm3 and 11.6 mm3 and 8.7 mm3 and the “tumor volumes and weights on day 28” value ([6]; PANC1 cells pre-treated 24 h with 20 µM, injected s.c. into nude mice) was “significantly reduced volumes and weights”. For the same compound, the “tumor take and growth” value ([6]; PANC1 cells pre-treated 24 h with 20 µM, injected s.c. into nude mice, 28 days) was “clear delay in tumor take and growth” and the “Tumor Weight” value ([6]; individual tumors) was 0.1301 g and 0.0568 g and 0.1068 g and 0.0882 g and 0.0887 g and 0.1001 g.
